Data set [1] relates to murine DSS model of ulcerative colitis. As to the kind of experiment: Murine DSS model of ulcerative colitis (acute). The data set is classed as in vivo, mouse. As to the method:
FIGS. 6A-F illustrate efficacy of ARTX-339, ARTX-405A, ARTX-413, and ARTX-425P1 in the murine DSS model of ulcerative colitis. A. C57BL/6 mice (7-8-week old mice) were supplied with 2.5% DSS in their drinking water for 7 days. Starting on day 4 post DSS treatment, mice were dosed once every other day with 100 μL vehicle (0.25% sodium carboxymethylcellulose used in the formulation of ARTX compounds), or 100 μL ARTX-339, ARTX-405A, ARTX-413, or ARTX-425P1 at 20 mg/kg body weight by oral gavage on days 4, 6, 8, and 10. Mice were euthanized on day 12. FITC dextran was administered to the mice via oral gavage 4 hours preceding euthanization. Following euthanization, colons were dissected, and their length measured. B. Measurements of colon length. C. Photographs of dissected colons. D. Measurement of FITC-dextran in serum following euthanization. […] Higher levels of serum FITC-dextran following DSS-treatment is an indication of a loss of barrier function. E. Body weight was measured every other day starting at day 0 with the initiation of DSS treatment. F. Disease activity index (DAI) scores were assigned every other day. The higher the DAI score, the worse the symptoms. **** indicates p<0.0001; *** indicates p<0.001; ** indicates=p<0.01.
A murine dextran sodium sulfate (DSS)-elicited model of ulcerative colitis was utilized to measure the efficacy of compounds in vivo. Oral administration of DSS in drinking water, a chemical colitogen with anticoagulant properties, leads to disruption of gut epithelium causing enhanced gut permeability, inflammation, and severe damage of gut barrier function^71,72. The rationale for using the murine DSS^71,72 model of UC is that it is a well-established gut epithelial barrier disrupting model that can be used to model both acute and chronic UC^70,71.
Starting on day 4 post DSS treatment, mice were dosed once every other day with 100 μL vehicle (0.25% sodium carboxymethylcellulose used in the formulation of ARTX compounds), or 100 μL ARTX-339, ARTX-405A, ARTX-413, or ARTX-425P1 at 20 mg/kg body weight by oral gavage on days 4, 6, 8, and 10. Mice were euthanized on day 12. FITC dextran was administered to the mice via oral gavage 4 hours prior to euthanization. Following euthanization, colons were dissected, and their lengths were measured.

Data set [2] can be described thus: In vitro safety pharmacology assays.
The subject of data set [3] is AhR signaling pathway. As to the kind of experiment: Luciferase AhR-reporter gene (DRE) assay in human hepatic cells. The data set is classed as cell-based. Conditions: FIG. 7A. As to the method:
(§1) Step 2: Selected compounds from step 1 were tested at a range of concentrations for activation of Cyp1A1 mRNA levels using qRT-PCR, for activation of Cyp1A1 enzymatic activity (ethoxyresorufin-O-deethylase (EROD) assay), or activation of an AhR-reporter gene driven by a so-called dioxin-response element (DRE) using commercially available kits. Activation of Cyp1A1 mRNA levels, activation of Cyp1A1 enzymatic activity, or activation of an AhR reporter gene construct driven by a DRE is generally considered to be indicative of a compound's ability to function as an AhR ligand. When activated by a ligand, cytosolic AhR translocates to the nucleus and dimerizes with the AhR nuclear translocator protein ARNT. The AhR/ARNT complex then binds to DREs to activate gene transcription.
(§2) In these experiments, human hepatic cells (FIG. 7A) or human intestinal epithelial cells (FIG. 7B) containing a luciferase AhR-reporter gene construct driven by a so-called dioxin-response element (DRE) were treated with various concentrations of ARTX-413 or with various concentrations of the well-studied AhR ligand β-naphthoflavone (BNF) using commercially available kits. Activation of Cyp1A1 mRNA levels, activation of Cyp1A1 enzymatic activity, or activation of an AhR reporter gene construct driven by a DRE is generally considered to be indicative of a compound's ability to function as an AhR ligand.

The next data set deals with hERG (Homo sapiens, UniProt Q12809). As to the kind of experiment: hERG assay. As to the method:
(§3) Step 4: Toxicity studies, including hERG and Ames tests, are conducted on compounds.

The subject of another data set is Salmonella strains. As to the kind of experiment: Ames test. As to the method: as §3
(§4) However, potential genotoxicity of ARTX-86 is consistent with its planar structure, which may allow ARTX-86 to intercalate into the DNA double helix. It's possible that reactive metabolites of ARTX-86 are being formed by the S9 fraction and the ability of ARTX-86 to intercalate into the DNA helix delivers the radicals or other toxic metabolites directly to the DNA.

In data set [4] the test system is AhR signaling pathway. As to the kind of experiment: Luciferase AhR-reporter gene (DRE) assay in human intestinal epithelial cells. The data set is classed as cell-based. Conditions: FIG. 7B. As to the method:
as §1, §2

The target of a further data set is T1, AhR (Homo sapiens, UniProt P35869).
T1 sequence (P35869 11-848): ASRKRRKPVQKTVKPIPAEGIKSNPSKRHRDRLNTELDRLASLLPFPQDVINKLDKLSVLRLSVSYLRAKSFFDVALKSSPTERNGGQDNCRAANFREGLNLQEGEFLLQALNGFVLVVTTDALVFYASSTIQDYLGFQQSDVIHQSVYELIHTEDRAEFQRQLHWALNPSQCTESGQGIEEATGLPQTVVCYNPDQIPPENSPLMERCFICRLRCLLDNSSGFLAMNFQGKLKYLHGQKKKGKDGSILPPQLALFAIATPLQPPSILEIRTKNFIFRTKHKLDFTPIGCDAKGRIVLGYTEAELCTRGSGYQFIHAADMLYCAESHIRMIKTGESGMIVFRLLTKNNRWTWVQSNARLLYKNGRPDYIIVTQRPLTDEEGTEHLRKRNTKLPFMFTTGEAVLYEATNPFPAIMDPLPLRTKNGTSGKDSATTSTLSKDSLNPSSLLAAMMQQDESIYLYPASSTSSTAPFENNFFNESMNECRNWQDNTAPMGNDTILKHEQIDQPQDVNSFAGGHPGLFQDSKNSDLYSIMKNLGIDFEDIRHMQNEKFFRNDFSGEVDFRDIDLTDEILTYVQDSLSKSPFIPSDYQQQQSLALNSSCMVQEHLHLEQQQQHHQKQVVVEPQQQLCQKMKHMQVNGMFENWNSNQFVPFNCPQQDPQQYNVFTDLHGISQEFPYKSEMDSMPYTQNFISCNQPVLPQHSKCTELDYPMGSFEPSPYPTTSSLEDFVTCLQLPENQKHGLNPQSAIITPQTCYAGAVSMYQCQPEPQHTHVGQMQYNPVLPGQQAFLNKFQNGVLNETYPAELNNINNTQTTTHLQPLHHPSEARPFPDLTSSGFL
The following applies: published data; cited from earlier work.

The conditions of data set [5]: pH 2.0 in the presence of gastric enzymes; cited from earlier work.
For data set [6] the following is noted: extensively tested; cited from earlier work.
The next data set can be described thus: Acute toxicity in rats. Conditions: rat, in vivo.
Description: as §4

In data set [7] the test system is TNBS-induced colitis in mice. Put plainly: Murine TNBS model of ulcerative colitis. The data set is classed as in vivo. Conditions: TNBS mouse model of UC. As to the method: FIGS. 2A-D illustrates that UAS03 is efficacious in a mouse 2,4,6-trinitrobenzenesulfonic acid (TNBS) model when administered either pre- or post-TNBS treatment. Pre-treatment: Mice (n=10 per group) were given UAS03 orally QD (20 mg/kg) for 7 days followed by administration of TNBS. Mice were euthanized 72 h post-TNBS treatment. Post-treatment: Mice (n=10 per group) received UAS03 QD (20 mg/kg) 24, 48, and 72 h post-TNBS. A) Ratio of colon weight/length. B) Intestinal permeability evaluated using a FITC-dextran leakage assay. C) Serum levels of TNF-α measured using a standard ELISA method. D) Claudin-4 (Cldn4) expression in mouse colons. […] Error bars, ±SEM; ***p<0.001.
Intra-rectal administration of 2,4,6-Trinitrobenzenesulfonic acid (TNBS) induces CD4^+-dependent colitis in mice resulting in increased intestinal permeability, shortening of colons, and increased inflammation^70. […] The symptoms that were reversed included body weight loss, colon weight/length ratio (FIG. 2A), increased gut permeability (FIG. 2B), and enhanced levels of inflammatory cytokines (FIG. 2C)^44. […] The beneficial effects of UAS03 in TNBS-treated mice were not observed in either AhR^−/− or Nrf2^−/− mutant mice^44. […] UAS03 was also efficacious in both acute and chronic dextran sodium sulfate (DSS)-induced^71,72 colitis models^44. […]

Data set [8] is described as follows: Preliminary PK studies in rats. Conditions: rat, in vivo.
Description: as §4

For another data set, the system named is Cyp1A1. As to the kind of experiment: Activation of Cyp1A1 expression. The data set is classed as cell-based. As to the method:
as §1

Here are results for three compounds from patent US12202841B2, “Therapeutic agents for enhancing epithelial and/or endothelial barrier function” (ARTUS THERAPEUTICS, INC., priority 2022, dated 2025).

Sequence of hERG (Q12809 whole entry): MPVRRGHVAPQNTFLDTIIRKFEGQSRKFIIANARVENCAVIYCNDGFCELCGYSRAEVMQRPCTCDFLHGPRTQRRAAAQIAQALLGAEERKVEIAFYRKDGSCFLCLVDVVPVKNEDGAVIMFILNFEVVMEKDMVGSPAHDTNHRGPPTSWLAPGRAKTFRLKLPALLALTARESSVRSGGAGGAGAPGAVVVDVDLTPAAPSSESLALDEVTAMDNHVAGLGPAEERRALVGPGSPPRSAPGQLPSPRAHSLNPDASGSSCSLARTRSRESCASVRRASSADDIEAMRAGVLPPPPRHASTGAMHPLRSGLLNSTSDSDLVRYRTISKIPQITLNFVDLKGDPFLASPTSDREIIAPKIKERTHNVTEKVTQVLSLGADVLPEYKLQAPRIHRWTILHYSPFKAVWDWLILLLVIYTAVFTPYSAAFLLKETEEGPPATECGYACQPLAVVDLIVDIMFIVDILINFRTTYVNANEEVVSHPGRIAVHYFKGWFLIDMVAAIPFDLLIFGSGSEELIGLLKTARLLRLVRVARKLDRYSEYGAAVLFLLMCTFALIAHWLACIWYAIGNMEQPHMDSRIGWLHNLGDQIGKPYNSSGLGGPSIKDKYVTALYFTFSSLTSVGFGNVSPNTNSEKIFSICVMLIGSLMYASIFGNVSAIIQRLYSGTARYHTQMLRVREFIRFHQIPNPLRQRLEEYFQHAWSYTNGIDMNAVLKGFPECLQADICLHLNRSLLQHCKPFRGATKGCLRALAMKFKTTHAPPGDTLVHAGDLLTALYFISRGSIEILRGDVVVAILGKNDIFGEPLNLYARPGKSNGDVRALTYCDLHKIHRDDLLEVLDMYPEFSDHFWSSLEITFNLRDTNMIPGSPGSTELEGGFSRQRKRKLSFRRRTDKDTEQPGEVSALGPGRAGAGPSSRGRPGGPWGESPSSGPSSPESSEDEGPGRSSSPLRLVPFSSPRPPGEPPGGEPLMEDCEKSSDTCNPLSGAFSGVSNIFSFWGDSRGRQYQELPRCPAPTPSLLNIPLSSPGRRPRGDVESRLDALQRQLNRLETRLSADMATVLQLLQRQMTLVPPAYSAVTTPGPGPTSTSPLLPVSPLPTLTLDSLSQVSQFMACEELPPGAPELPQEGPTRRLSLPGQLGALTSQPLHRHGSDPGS

As for `Oc1ncc2c(n1)OCc1cc(F)ccc1-2` [ARTX-413, 8-fluoro-6H-isochromeno[3,4-d]pyrimidin-3-ol], the “efficacy in the murine DSS model of colitis” value in [1] (20 mg/kg oral gavage on days 4, 6, 8, 10, 2.5% DSS, C57BL/6 mice) is reported as “exhibited efficacy”. Moreover, the “DSS-elicited body weight loss” value in [1] (20 mg/kg oral gavage on days 4, 6, 8, 10, FIG. 6E) is recorded as “highly effective”. The “disease activity index (DAI)” value in data set [1] (20 mg/kg oral gavage on days 4, 6, 8, 10, FIG. 6F) was “highly effective”. In addition, in data set [1] (20 mg/kg oral gavage on days 4, 6, 8, 10, day 12, FIG. 6B, 6C), the colon length result is listed as “highly effective”. Also, the off-target effects entry in data set [2] was “did not identify any significant off-target effects”. Besides, the “activation of AhR reporter gene” value in the data set with AhR signaling pathway [3] and with AhR signaling pathway [4] was “activate the AhR signaling pathway” throughout. The “hERG inhibition / risk of cardiotoxicity” value on hERG (FIG. 8) is “low risk of cardiotoxicity”. Also, the Ames test result with Salmonella strains (concentrations as high as 1.0 mg/mL) is on record as “non-genotoxic”.

With `O=c1oc2cc(O)ccc2c2ccc(O)cc12` [UroA, Urolithin A], the AhR ligand activity result at AhR is given as “AhR ligand that activates the AhR signaling pathway”. Further, the hydrolysis entry in [5] was “rapidly hydrolyzed”. Besides, the genotoxicity entry in data set [6] is “no indications of genotoxicity have been reported”.

`Oc1ccc2c(c1)OCc1cc(F)ccc1-2` [ARTX-86]: the “efficacy compared with UAS03” value in [1] (DSS mouse model of UC) and in data set [7] was “equally efficacious as UAS03” throughout. The compound also came in with an NOAEL in the data set “Acute toxicity in rats” of 1000 mg/kg/day. The same compound registered an MTD in the data set “Acute toxicity in rats” (acute toxicity) above 2000 mg/kg. For the same compound, the “cardiotoxicity in hERG assay” value at hERG (up to 60 times the efficacious dose) is given as “not cardiotoxic”. In [8] (20 mg/kg), this compound showed a half-life of 2.22 ± 0.5 h. The peak level in data set [8] (dosed at 20 mg/kg) (Cmax) was 92 ± 15 ng/mL. For the same compound, the Ames test result with Salmonella strains (one of the Salmonella strains, with / without liver S9 enzymes) is recorded as “tested positive in the presence but not the absence of liver S9 enzymes”. Also, the “activating the expression of Cyp1A1, compared with UroA and UAS03” value with Cyp1A1 is “comparably active as UroA and UAS03”.
